The source made the active and inactive calls. The calls are words filed in the database; no cut-off is given here.
Columns and labels:
[1] = system: MCF7; assay: Induction of cell cycle arrest in human MCF7 cells assessed as accumulation of cells at G2/M phase at 0.5 uM incubated for 24 hrs by PI/RNase staining based flow cytometric analysis (reference value: 20.8 %); assay type: functional
[2] = biological target: Serine/threonine-protein kinase mTOR (Homo sapiens) (UniProt P42345); assay: Inhibition of mTOR phosphorylation in human Trastuzumab-resistant JIMT-1 cells at 1 uM cotreated with trastuzumab by Western blot analysis; assay type: cell-based; conditions: Trastuzumab-resistant JIMT-1 cell
[3] = system: MCF7; assay: Induction of ROS generation in human MCF7 cells assessed as increase in intracellular ROS level at 0.5 to 2 uM incubated for 24 hrs by DCFH-DA staining based microscopic analysis; assay type: functional, cell-based; conditions: dose 0.5-2 µM
[4] = system: MCF7; assay: Induction of cell cycle arrest in human MCF7 cells assessed as accumulation of cells at G1 phase at 0.5 uM incubated for 24 hrs by PI/RNase staining based flow cytometric analysis (reference value: 52.7 %); assay type: functional
[5] = system: JIMT-1; assay: Synergistic antiproliferative activity against human JIMT-1 cells assessed inhibition of cell growth at 0.25 to 1 uM by MTT assay; assay type: functional, cell-based; conditions: dose 0.25-1 µM
[6] = system: MCF7; assay: Induction of apoptosis in human MCF7 cells assessed as necrotic cells at 2 uM incubated for 24 hrs by Annexin V-FITC/PI double staining based flow cytometric analysis (reference value: 3.44 %); assay type: functional
[7] = biological target: Serine/threonine-protein kinase mTOR (Homo sapiens) (UniProt P42345); assay: Inhibition of mTOR phosphorylation in human Trastuzumab-resistant JIMT-1 cells at 1 uM by Western blot analysis; assay type: cell-based; conditions: Trastuzumab-resistant JIMT-1 cell
[8] = system: MCF7; assay: Induction of apoptosis in human MCF7 cells assessed as late apoptotic cells at 0.5 uM incubated for 24 hrs by Annexin V-FITC/PI double staining based flow cytometric analysis (reference value: 11.8 %); assay type: functional
[9] = system: MCF7; assay: Induction of apoptosis in human MCF7 cells assessed as viable cells at 1 uM incubated for 24 hrs by Annexin V-FITC/PI double staining based flow cytometric analysis (reference value: 83.2 %); assay type: functional; conditions: read-out: Activity
[10] = system: MCF7; assay: Antiproliferative activity against human MCF7 cells assessed as inhibition of cell proliferation incubated for 48 hrs by MTT assay; assay type: functional, cell-based; conditions: MCF7, 48 h
[11] = system: MCF7; assay: Induction of apoptosis in human MCF7 cells assessed as viable cells at 0.5 uM incubated for 24 hrs by Annexin V-FITC/PI double staining based flow cytometric analysis (reference value: 83.2 %); assay type: functional; conditions: read-out: Activity
[12] = system: MCF7; assay: Induction of apoptosis in human MCF7 cells assessed as viable cells at 2 uM incubated for 24 hrs by Annexin V-FITC/PI double staining based flow cytometric analysis (reference value: 83.2 %); assay type: functional; conditions: read-out: Activity
[13] = Antiproliferative activity against human Trastuzumab-resistant JIMT-1 cells at 0.5 uM in presence of trastuzumab by MTT assay relative to control; assay type: functional, Trastuzumab-resistant JIMT-1 cell
[14] = system: MCF7; assay: Induction of apoptosis in human MCF7 cells assessed as early apoptotic cells at 2 uM incubated for 24 hrs by Annexin V-FITC/PI double staining based flow cytometric analysis (reference value: 1.56 %); assay type: functional
[15] = system: MCF7; assay: Induction of apoptosis in human MCF7 cells assessed as late apoptotic cells at 2 uM incubated for 24 hrs by Annexin V-FITC/PI double staining based flow cytometric analysis (reference value: 11.8 %); assay type: functional
[16] = system: MCF7; assay: Inhibition of cell migration in human MCF7 cells incubated for 12 to 24 hrs by wound healing assay; assay type: functional, cell-based; conditions: dose 1-4 µM, time 12-24 hrs
[17] = system: MCF7; assay: Induction of apoptosis in human MCF7 cells assessed as early apoptotic cells at 0.5 uM incubated for 24 hrs by Annexin V-FITC/PI double staining based flow cytometric analysis (reference value: 1.56 %); assay type: functional
[18] = system: HeLa; assay: Antiproliferative activity against human HeLa cells assessed as inhibition of cell proliferation incubated for 48 hrs by MTT assay; assay type: functional, cell-based
[19] = system: MCF7; assay: Induction of apoptosis in human MCF7 cells assessed as necrotic cells at 1 uM incubated for 24 hrs by Annexin V-FITC/PI double staining based flow cytometric analysis (reference value: 3.44 %); assay type: functional
[20] = system: MCF7; assay: Induction of cell cycle arrest in human MCF7 cells assessed as accumulation of cells at G1 phase at 1 uM incubated for 24 hrs by PI/RNase staining based flow cytometric analysis (reference value: 52.7 %); assay type: functional
[21] = system: MCF7; assay: Induction of apoptosis in human MCF7 cells assessed as early apoptotic cells at 1 uM incubated for 24 hrs by Annexin V-FITC/PI double staining based flow cytometric analysis (reference value: 1.56 %); assay type: functional
[22] = biological target: Serine/threonine-protein kinase mTOR (Homo sapiens) (UniProt P42345); assay: Inhibition of mTOR phosphorylation in human MCF7 cells incubated for 24 hrs by Western blot analysis; assay type: cell-based; conditions: dose 0.5-2 µM
[23] = system: MCF7; assay: Induction of cell cycle arrest in human MCF7 cells assessed as accumulation of cells at S phase at 1 uM incubated for 24 hrs by PI/RNase staining based flow cytometric analysis (reference value: 26.4 %); assay type: functional
[24] = system: MCF7; assay: Induction of cell cycle arrest in human MCF7 cells assessed as accumulation of cells at S phase at 2 uM incubated for 24 hrs by PI/RNase staining based flow cytometric analysis (reference value: 26.4 %); assay type: functional
[25] = system: MCF7; assay: Induction of cell cycle arrest in human MCF7 cells assessed as accumulation of cells at S phase at 0.5 uM incubated for 24 hrs by PI/RNase staining based flow cytometric analysis (reference value: 26.4 %); assay type: functional
[26] = Antiproliferative activity against human Trastuzumab-resistant JIMT-1 cells at 0.5 uM by MTT assay relative to control; assay type: functional, Trastuzumab-resistant JIMT-1 cell
[27] = system: MCF7; assay: Antitumor activity against human MCF7 cells xenografted in female BALB/c mouse assessed as tumor growth inhibition at 5 mg/kg, iv administered daily for 14 days relative to control; assay type: functional; conditions: MCF7, 336 h, time 14 day, read-out: TGI
[28] = system: MCF7; assay: Induction of cell cycle arrest in human MCF7 cells assessed as accumulation of cells at G2/M phase at 1 uM incubated for 24 hrs by PI/RNase staining based flow cytometric analysis (reference value: 20.8 %); assay type: functional
[29] = system: MDA-MB-231; assay: Antiproliferative activity against human MDA-MB-231 cells assessed as inhibition of cell proliferation incubated for 48 hrs by MTT assay; assay type: functional, cell-based; conditions: MDA-MB-231, 48 h
[30] = system: MCF7; assay: Induction of autophagy in human MCF7 cells incubated for 24 hrs by MDC probe based confocal microscopy analysis; assay type: functional, cell-based; conditions: dose 0.5-2 µM
[31] = system: MCF7; assay: Inhibition of AKT phosphorylation in human MCF7 cells incubated for 24 hrs by Western blot analysis; assay type: cell-based; conditions: dose 0.5-2 µM
[32] = system: MCF7; assay: Induction of apoptosis in human MCF7 cells assessed as necrotic cells at 0.5 uM incubated for 24 hrs by Annexin V-FITC/PI double staining based flow cytometric analysis (reference value: 3.44 %); assay type: functional
[33] = Toxicity in female BALB/c mouse xenografted with human MCF7 cells assessed as body weight loss at 5 mg/kg, iv measured daily for 14 days; assay type: organism-based; conditions: in vivo, 336 h, time 14 day
[34] = system: Trastuzumab-resistant JIMT-1 cell; assay: Inhibition of AKT phosphorylation in human Trastuzumab-resistant JIMT-1 cells at 1 uM cotreated with trastuzumab by Western blot analysis; assay type: cell-based
[35] = system: MCF7; assay: Induction of cell cycle arrest in human MCF7 cells assessed as accumulation of cells at G2/M phase at 2 uM incubated for 24 hrs by PI/RNase staining based flow cytometric analysis (reference value: 20.8 %); assay type: functional
[36] = system: MCF7; assay: Inhibition of colony formation in human MCF7 cells assessed as decrease in colonies incubated for 10 days with replacement of medium for every 3 days by crystal violet staining based assay; assay type: functional, cell-based; conditions: dose 0.5-2 µM, time 10.0 day
[37] = system: HeLa; assay: Inhibition of cell migration in human HeLa cells incubated for 12 to 24 hrs by wound healing assay; assay type: functional, cell-based; conditions: dose 1-4 µM, time 12-24 hrs
[38] = system: MCF7; assay: Induction of cell cycle arrest in human MCF7 cells assessed as accumulation of cells at G1 phase at 2 uM incubated for 24 hrs by PI/RNase staining based flow cytometric analysis (reference value: 52.7 %); assay type: functional
[39] = system: Trastuzumab-resistant JIMT-1 cell; assay: Inhibition of AKT phosphorylation in human Trastuzumab-resistant JIMT-1 cells at 1 uM by Western blot analysis; assay type: cell-based
[40] = system: MCF7; assay: Induction of apoptosis in human MCF7 cells assessed as late apoptotic cells at 1 uM incubated for 24 hrs by Annexin V-FITC/PI double staining based flow cytometric analysis (reference value: 11.8 %); assay type: functional

## C=C(C)[C@@H]1CC[C@]2(C(=O)O)CC[C@]3(C)[C@H](CC[C@@H]4[C@@]5(C)CC[C@H](OC(=O)N6CCN(C(=O)CCl)CC6)C(C)(C)[C@@H]5CC[C@]43C)[C@@H]12
[1]
  Activity: 23.4%
[2]
  inhibition: Active
[3]
  Activity: Active
[4]
  Activity: 54.7%
[5]
  Activity: Active
[6]
  Activity: 2.93%
[7]
  inhibition: Active
[8]
  Activity: 15.3%
[9]
  viability at 1 µM: 74.9%
[10]
  IC50: 1090 nM
[11]
  viability at 0.5 µM: 79.7%
[12]
  viability at 2 µM: 72.3%
[13]
  Activity: 59%
[14]
  Activity: 2.72%
[15]
  Activity: 22%
[16]
  inhibition: Dose-dependent-effect
[17]
  Activity: 2.47%
[18]
  IC50: 1110 nM
[19]
  Activity: 3.93%
[20]
  Activity: 56.4%
[21]
  Activity: 1.99%
[22]
  inhibition: Dose-dependent-effect
[23]
  Activity: 19.1%
[24]
  Activity: 19.8%
[25]
  Activity: 22%
[26]
  Activity: 19.9%
[27]
  inhibition in vivo at 5 mg/kg: 36%
[28]
  Activity: 24.3%
[29]
  IC50: 1660 nM
[30]
  Activity: Dose-dependent-effect
[31]
  inhibition: Dose-dependent-effect
[32]
  Activity: 2.49%
[33]
  Activity: Non-toxic
[34]
  inhibition: Active
[35]
  Activity: 27.2%
[36]
  inhibition: Dose-dependent-effect
[37]
  inhibition: Dose-dependent-effect
[38]
  Activity: 53.4%
[39]
  inhibition: Active
[40]
  Activity: 19.2%

From ChEMBL document CHEMBL6114952, “Synthesis and antitumor effects of novel betulinic acid derivatives bearing electrophilic moieties” (Bioorg Med Chem, 2025)
